Reference: patent US20140011853A1, “SUBSTITUTED 3-(BIPHENYL-3-YL)-8,8-DIFLUORO-4-HYDROXY-1-AZASPIRO[4.5]DEC-3-EN-2-ONES FOR THERAPY” (BAYER INTELLECTUAL PROPERTY GMBH, priority 2011, published 2014)

How the values were obtained:
Phaedon cochleariae = assay: Phaedon test (PHAECO spray treatment); conditions: for effect (kill of beetle larvae): 500 g/ha, after 7 days
Myzus persicae = assay: Myzus test (MYZUPE spray treatment); assay type: in vivo; conditions: for effect (kill of aphids) / pest or weed control at 500 g/ha: 500 g/ha, after 6 days; for pest or weed control at 500 g/ha: read-out: effect (kill of aphids)
From the text: Disks of Chinese cabbage (Brassica pekinensis) infested by all stages of the green peach aphid (Myzus persicae) are sprayed with an active compound formulation of the desired concentration.

Tetranychus urticae = assay: Tetranychus test, OP-resistant (TETRUR spray treatment); assay type: in vivo; conditions: for effect (kill of spider mites) / pest or weed control at 100 g/ha: after 6 days; for pest or weed control at 100 g/ha: read-out: effect (kill of spider mites)
Spodoptera frugiperda = Spodoptera frugiperda test (SPODFR spray treatment); assay type: in vivo; conditions: 500 g/ha, after 7 days
[1] = Tetranychus urticae, 144 h, 100 g/ha

Row | Compound | effect (kill of beetle larvae) (Phaedon cochleariae) | effect (kill of aphids) (Myzus persicae) | pest or weed control at 500 g/ha (Myzus persicae; Myzus persicae, 144 h) | further results
1 | Cc1cc(Cl)cc(C)c1C1=C(O)C2(CCC(F)(F)CC2)NC1=O [Example I-1-a-7] | 100% | 100% |  | effect (kill of spider mites) (Tetranychus urticae; 100 g/ha): 100%
2 | Cc1cc(C)c(C2=C(O)C3(CCC(F)(F)CC3)OC2=O)cc1C [Example I-2-a-1] |  |  | 100% | 
3 | Cc1cc(C)c(C2=C(OC(=O)C(C)C)C3(CCC(F)(F)CC3)OC2=O)cc1C [Example I-2-b-1] |  |  | 100% | effect (kill of caterpillars) (Spodoptera frugiperda): 83%
4 | Cc1cc(C)c(C2=C(O)C3(CCC(F)(F)CC3)NC2=O)c(C)c1 [Example I-1-a-1] |  |  | 100% | effect (kill of caterpillars) (Spodoptera frugiperda): 83%; pest or weed control at 100 g/ha (Tetranychus urticae; [1]): 100%
5 | Cc1ccc(Br)cc1C1=C(O)C2(CCC(F)(F)CC2)NC1=O [Example I-1-a-14, 3-(5-Bromo-2-methylphenyl)-8,8-difluoro-4-hydroxy-1-azaspiro[4.5]dec-3-en-2-one] |  |  | 100% | 
6 | Cc1cc(Cl)cc(C)c1C1=C(O)C2(CC=C(F)CC2)NC1=O (stereo not shown) [Example I-1-a-13] | 100% | 100% |  | effect (kill of spider mites) (Tetranychus urticae; 100 g/ha): 90%
7 | Cc1cc(Br)cc(C)c1C1=C(O)C2(CCC(F)(F)CC2)NC1=O [Example I-1-a-5] | 100% | 100% |  | effect (kill of spider mites) (Tetranychus urticae; 100 g/ha): 100%
8 | Cc1cc(C)c(C2=C(O)C3(CCC(F)(F)CC3)OC2=O)c(C)c1 [Example I-2-a-4] | 100% | 100% |  | 
9 | Cc1ccc(-c2ccc(Cl)cc2)cc1C1=C(O)C2(CCC(F)(F)CC2)OC1=O [Example I-2-a-3] | 100% | 90% |  | effect (kill of caterpillars) (Spodoptera frugiperda): 100%
10 | Cc1ccc(-c2ccc(F)cc2)c(C)c1C1=C(O)C2(CC=C(F)CC2)NC1=O (stereo not shown) [Example I-1-a-12] | 100% | 100% |  | effect (kill of caterpillars) (Spodoptera frugiperda): 100%; effect (kill of spider mites) (Tetranychus urticae; 500 g/ha): 100%
11 | Cc1cc(-c2ccc(Cl)cc2)cc(C)c1C1=C(O)C2(CCC(F)(F)CC2)NC1=O [Example I-1-a-9] | 100% |  | 100% | pest or weed control at 100 g/ha (Tetranychus urticae; [1]): 100%
12 | CCc1cc(C)cc(C)c1C1=C(OC(=O)C(C)C)C2(CCC(F)(F)CC2)NC1=O [Example I-1-b-1] |  |  | 100% | pest or weed control at 100 g/ha (Tetranychus urticae; [1]): 100%
13 | Cc1cc(OCC(F)(F)F)cc(C)c1C1=C(O)C2(CCC(F)(F)CC2)NC1=O [Example I-1-a-8] | 100% |  | 100% | pest or weed control at 100 g/ha (Tetranychus urticae; [1]): 100%
14 | CCOC(=O)OC1=C(c2c(C)cc(C)cc2CC)C(=O)NC12CCC(F)(F)CC2 [Example I-1-c-1] |  |  | 90% | pest or weed control at 100 g/ha (Tetranychus urticae; [1]): 100%
15 | Cc1ccc(-c2ccc(F)c(F)c2)cc1C1=C(O)C2(CCCCC2)NC1=O [prior art WO 2008/067911 Table 1, reference compound] |  |  |  | inhibition at 20 g/ha (Phaedon cochleariae; Phaedon cochleariae, 168 h, read-out: % activity PHAECO): 0%; inhibition at 20 g/ha (Myzus persicae; Myzus persicae, 144 h, read-out: % activity MYZUPE): 0%; inhibition at 20 g/ha (Tetranychus urticae; Tetranychus urticae, 144 h, read-out: % activity TETRUR): 0%
16 | Cc1ccc(-c2ccc(F)cc2)c(C)c1C1=C(O)C2(CCC(F)(F)CC2)OC1=O [Example I-2-a-2] | 100% | 100% |  | effect (kill of caterpillars) (Spodoptera frugiperda): 100%; effect (kill of spider mites) (Tetranychus urticae; 500 g/ha): 100%
17 | CCc1cc(C)cc(C)c1C1=C(O)C2(CCC(F)(F)CC2)NC1=O [Example I-1-a-11] |  |  |  | effect (kill of spider mites) (Tetranychus urticae; 100 g/ha): 100%
